Results as given in patent publication US20030143635A1, “Assay for detection of transferase enzyme activity in drug screening” (AstraZeneca AB, priority 2000, published 2003).

Experiments:
transferase enzyme = target: T1, transferase enzyme (Escherichia coli, UniProt P17443); experiment: Scintillation proximity assay of the transferase alone, with membranes of E. coli AMA1004 ΔponB::SpcR and pre-formed Lipid I (Example 4); format: biochemical; details: Tunicamycin 10 μg/ml present, 37° C., 5 min, after subtracting 0% reaction readings
T1 sequence (P17443 1-355): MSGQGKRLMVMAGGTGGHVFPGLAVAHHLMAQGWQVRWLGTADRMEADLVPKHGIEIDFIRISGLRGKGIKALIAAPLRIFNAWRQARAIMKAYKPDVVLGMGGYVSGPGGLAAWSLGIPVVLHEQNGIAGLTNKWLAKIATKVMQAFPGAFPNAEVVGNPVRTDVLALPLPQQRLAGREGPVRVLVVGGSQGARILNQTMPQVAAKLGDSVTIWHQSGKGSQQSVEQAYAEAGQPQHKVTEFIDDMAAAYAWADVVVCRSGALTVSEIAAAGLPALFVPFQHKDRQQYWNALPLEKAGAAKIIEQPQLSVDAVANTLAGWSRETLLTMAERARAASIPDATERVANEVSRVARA
Experimental: Microbiol., (1985), 131, 2839-2845. The plate was incubated for 20 min at 37° C.
(ii) Tunicamycin was then added to a final concentration of 10 μg/ml, followed by a test compound (e.g. Vancomycin or Nisin) of varying concentration in dimethyl sulphoxide. Nisin and Vancomycin are known antagonists of the transferase enzyme.
(iii) Then to the reaction well, in a 5 μl volume, the substrate for the transferase was added: 2.5 μM tritiated UDP-N-acetyl glucosamine (0.5 μCi per well). The microtitre plate was incubated for 5 min at 37° C.
(iv) The reaction was terminated by diluting out the radiolabel i.e. by addition of 25 μl of 200 μM unlabelled UDP-GlcNAc.

[1] = test system: translocase and transferase enzymes; format: biochemical, Escherichia coli; details: 100 μM test compound; E. coli AMA1004 membranes; 37° C., 30 min; after subtracting 0% reaction readings
Experimental: (§1) (i) The wells of a microtitre plate were individually filled with a total volume of 25 μl of a reaction mixture comprising an aqueous buffer solution of 50 mM HEPES-ammonia (N-[2-Hydroxyethyl]piperazine-N′-[2-ethanesulfonic acid]) (pH 7.5), and 10 mM magnesium chloride 15 μM UDP-MurNAc-L-alanine-γ-D-glutamic acid-m-diaminopimelic acid-D-alanine-D-alanine, 2.5 μM tritiated UDP-N-acetyl glucosamine (0.2 μCi per well), 6 μg of Escherichia coli AMA1004 cell membranes prepared as described below and a solution of test compound (e.g. Tunicamycin, Vancomycin) of varying concentration in 4% dimethylsulphoxide.
(§2) Four wells of the microtitre plate were used as controls: two wells contained no UDP-N-acetylmuramylpentapeptide (0% reaction controls) and a further two wells contained no test compound (100% reaction controls).
(§3) The microtitre plate was incubated at 37° C. for 30 min and thereafter 5 μl of ethylenediaminetetraacetic acid (EDTA) was added to give a final EDTA concentration of 15 mM.
(§4) (ii) After addition of the EDTA, 170 μl of an aqueous suspension of wheatgerm agglutinin-coated scintillation proximity assay beads comprising 500 μg beads in a solution of HEPES-ammonia, pH 7.5, was added to each well such that the final concentration of HEPES-ammonia was 50 mM.
(§5) The plate was left for 3 hours/overnight at room temperature before being counted in the “Microbeta Trilux” counter.

[2] = target: T2, translocase and transferase enzymes (Escherichia coli, UniProt P0A6W3); format: biochemical; details: 6 μg/ml test compound; E. coli AMA1004 membranes; 37° C., 30 min; after subtracting 0% reaction readings
T2 sequence (P0A6W3 1-360): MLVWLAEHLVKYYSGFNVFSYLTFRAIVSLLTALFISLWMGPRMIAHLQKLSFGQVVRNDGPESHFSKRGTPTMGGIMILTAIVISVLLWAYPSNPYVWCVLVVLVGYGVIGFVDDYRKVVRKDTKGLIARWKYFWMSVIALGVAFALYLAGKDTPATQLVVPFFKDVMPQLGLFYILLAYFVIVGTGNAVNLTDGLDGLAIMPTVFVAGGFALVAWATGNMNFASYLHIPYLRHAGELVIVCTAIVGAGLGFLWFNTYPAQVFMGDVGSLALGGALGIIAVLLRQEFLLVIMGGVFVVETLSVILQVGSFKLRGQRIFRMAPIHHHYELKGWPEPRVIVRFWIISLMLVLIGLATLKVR
Experimental: as §1, §2, §3, §4, §5

## CN[C@H](CC(C)C)C(=O)N[C@H]1C(=O)N[C@@H](CC(N)=O)C(=O)N[C@H]2C(=O)N[C@H]3C(=O)N[C@H](C(=O)N[C@H](C(=O)O)c4cc(O)cc(O)c4-c4cc3ccc4O)[C@H](O)c3ccc(c(Cl)c3)Oc3cc2cc(c3O[C@@H]2O[C@H](CO)[C@@H](O)[C@H](O)[C@H]2O[C@H]2C[C@](C)(N)[C@H](O)[C@H](C)O2)Oc2ccc(cc2Cl)[C@H]1O [Vancomycin]
Transferase enzyme; 100 μM test compound
  remaining activity at 100 µM: ~50%
[1]
  % Inhibition: 82%

## Tunicamycin
[2]
  % Inhibition: 104%

## Nisin
Transferase enzyme; 10 μg/ml test compound
  % Enzyme Activity: ˜30%
